Counter-ions that a name gives are not always drawn.
Legend:
Format in all cases: physicochemical
[1] = Moisture sorption/desorption studies (hygrostat, storage at different temperatures and relative humidity); settings: for water content (Table V): 11.2% RH, % on the weight of compound 1a
Experimental: The determination of the sorption isotherms was carried out in a hygrostat.
At suitable intervals, the sample was weighed by means of a sample balance. The atmosphere in the hygrostat and therefore around the sample of compound 1a (1b) and 2a (2b) was conditioned and kept by a saturated solutions of a suitable salt:
Na Cl saturated solution 75.3% RH/25° C. 74.8% RH/37° C.
KNO3 saturated solution 93.7% RH/25° C. 90.0% RH/37° C.
At the end of the experiment, after completing the hysteresis, that is the adsorption--desorption cycle of humidity, the compound was assayed for the title and degradation products by TLC and HPLC, the physical state by DSC and water content by TGA.

[2] = Moisture content during tablet manufacturing (mixing and tableting); settings: hydrochloride monohydrate; for Moisture content: % on the weight of compound 1a
Excerpt: As a consequence, storage of compound 2a may be effected in normal conditions and no particular precautions are needed to avoid exposure to moisture. The titer of compound 2a, when it is stored in normal conditions, is therefore maintained at difference with compound 1a which, in the same conditions, may show different titles according to the water content. The hygroscopicity may also influence the drug title immediately after the manufacturing of tablets. In fact during the process of manufacturing the drug exposed at normal ambient conditions where it can take up moisture.

[3] = Milling studies (FRITSCH Pulverisette 14 Rotor Speed Mill)
Experimental: The milling process was performed by the FRITSCH Pulverisette 14 Rotor Speed Mill supplied with circular sieve stainless steel with trapezoidal 0.080 mm diameter openings. The samples were passed through the mill twice at 20.000 rpm motor speed. The sample is assayed for title and degradation products by TLC and HPLC, physical state by DSC, water content by TGA, particle size distribution by Mercury Instrusion Porosimetry. The mi 11ed compounds are formulated in capsules and tablets at very low dose level (0.5 mg) by direct mixing and direct compression manufacturing method, respectively.

[4] = Accelerated stability tests in tablets and capsules; settings: for % degradation: tablets and capsules in PVC/PVDC blister with aluminium foil, hydrochloride monohydrate
Excerpt: (§1) Drug stability in these final compositions may be measured in accelerated stability tests or in long term real time stability tests. In accelerated stability tests, the above pharmaceutical compositions are exposed at high temperatures at different degrees of relative humidity for a period of time. Such tests are considered to be indicative of the stability of the composition at normal conditions. In long term real time stability studies the final compositions are exposed to normal conditions of storage at ambient temperatures at different degrees of relative humidity.
(*)according to H. Leven Berger Pharm. Act. Helv. 50 (1975) 88-91 it is
equivalent to 2 years storage at room temperature. Tablets and capsules
are packaged in PVC/PVDC blister with aluminium foil.
(*)according to "Guidelines for stability studies for Human Drugs and
Biologics" (1987) (USA/FDA) it is equivalent to 2 years at room
temperature. Tablets and capsules are packaged in PVC/PVDC blister with […]

[5] = Long-term real time stability tests in tablets and capsules; settings: for % degradation: tablets and capsules in PVC/PVDC blister with aluminium foil, hydrochloride monohydrate
Excerpt: as §1
Tablets and capsules are packaged in PVC/PVDC blister with aluminium foil

[6] = Water loss on desiccation under vacuum; settings: between room temperature and 60° C. under vacuum, most preferably 40° C., 0.1 mm Hg, 24 hours; in words
Experimental: Compounds 2a and 2b may be prepared by dissolving the compounds 1a and 1b, as free base, in a hot aqueous solvent, preferably a hot aqueous alkanol, by adding the required amount of gaseous hydrogen chloride, filtering the resulting solution and letting it cool to room temperature. In a preferred embodiment of the process according to the invention, compound 2a is prepared by using, as an hot aqueous alkanol, hot 85% aqueous ethanol. The crystals of compound 2a may be collected by vacuum filtration and are washed with a small amount of aqueous ethanol. In a preferred embodiment of the process according to the invention, compound 2b is prepared by using, as an hot aqueous alkanol, hot 95% aqueous isopropanol. The crystals of compound 2b may be collected by vacuum filtration and are washed with a small amount of aqueous isopropanol. […] Water content may be measured by usual techniques such as the Karl Fischer test. Alternatively, compounds 2a and 2b may be conveniently prepared by dissolving the anhydrous form of compounds 1a and 1b, as hydrochloride, in hot aqueous ethanol, preferably 85% ethanol (respectively in hot aqueous isopropanol, preferably 95% isopropanol) and allowing to cool the solution at room temperature; crystals of compound 2 a (respectively 2b), separated from the cooled solution, are collected by vacuum filtration and manipulated as previously described. […]

## CN1C2CCC1CC(NC(=O)n1c(=O)[nH]c3ccccc31)C2 (stereo not drawn) [Compound 2a, Endo-2,3-dihydro-N-(8-methyl-8-azabicyclo[3.2.1]oct-3-yl)-2-oxo-1H-benzimidazole-1-carboxamide, hydrochloride monohydrate]
[1]; 11 RH, 37° C., in words
  water content in conditions of extreme dryness: not affected
[1]; 37° C., 2 h
  water content (Table V): 5.32%
[1]; 37° C., 4 h
  water content (Table V): 5.31%
[1]; 37° C., 6 h
  water content (Table V): 5.31%
[1]; 37° C., 21 days
  water content (Table V): 5.29%
[1]; 37° C., time 0
  water content (Table V): 5.26%
[1]; 37° C., 75% RH, 2 h, hydrochloride monohydrate
  water content (Table III): 5.8%
[1]; 37° C., 75% RH, 4 h, hydrochloride monohydrate
  water content (Table III): 5.75%
[1]; 37° C., 75% RH, 6 h, hydrochloride monohydrate
  water content (Table III): 5.79%
[1]; 37° C., 75% RH, 1 d, hydrochloride monohydrate
  water content (Table III): 5.75%
[1]; 37° C., 75% RH, 5 d, hydrochloride monohydrate
  water content (Table III): 5.8%
[1]; 37° C., 75% RH, 9 d, hydrochloride monohydrate
  water content (Table III): 5.76%
[1]; 37° C., 75% RH, 15 d, hydrochloride monohydrate
  water content (Table III): 5.8%
[1]; 37° C., 94% RH, 2 h, hydrochloride monohydrate
  water content (Table III): 5.49%
[1]; 37° C., 94% RH, 4 h, hydrochloride monohydrate
  water content (Table III): 5.47%
[1]; 37° C., 94% RH, 6 h, hydrochloride monohydrate
  water content (Table III): 5.53%
[1]; 37° C., 94% RH, 1 d, hydrochloride monohydrate
  water content (Table III): 5.5%
[1]; 37° C., 94% RH, 5 d, hydrochloride monohydrate
  water content (Table III): 5.49%
[1]; 37° C., 94% RH, 9 d, hydrochloride monohydrate
  water content (Table III): 5.48%
[1]; 37° C., 94% RH, 15 d, hydrochloride monohydrate
  water content (Table III): 5.48%
[1]; Room Temperature, 75% RH, 2 h, hydrochloride monohydrate
  water content (Table III): 5.46%
[1]; Room Temperature, 75% RH, 4 h, hydrochloride monohydrate
  water content (Table III): 5.43%
[1]; Room Temperature, 75% RH, 6 h, hydrochloride monohydrate
  water content (Table III): 5.37%
[1]; Room Temperature, 75% RH, 1 d, hydrochloride monohydrate
  water content (Table III): 5.41%
[1]; Room Temperature, 75% RH, 4 d, hydrochloride monohydrate
  water content (Table III): 5.42%
[1]; Room Temperature, 75% RH, 8 d, hydrochloride monohydrate
  water content (Table III): 5.36%
[1]; Room Temperature, 75% RH, 20 d, hydrochloride monohydrate
  water content (Table III): 5.41%
[1]; Room Temperature, 94% RH, 2 h, hydrochloride monohydrate
  water content (Table III): 5.49%
[1]; Room Temperature, 94% RH, 4 h, hydrochloride monohydrate
  water content (Table III): 5.53%
[1]; Room Temperature, 94% RH, 6 h, hydrochloride monohydrate
  water content (Table III): 5.51%
[1]; Room Temperature, 94% RH, 1 d, hydrochloride monohydrate
  water content (Table III): 5.49%
[1]; Room Temperature, 94% RH, 4 d, hydrochloride monohydrate
  water content (Table III): 5.44%
[1]; Room Temperature, 94% RH, 8 d, hydrochloride monohydrate
  water content (Table III): 5.48%
[1]; Room Temperature, 94% RH, 20 d, hydrochloride monohydrate
  water content (Table III): 5.49%
[1]; different temperatures and relative humidity, in words
  stability in condition of storage: stable
[1]; different temperatures and relative humidity, in words, hydrochloride monohydrate
  moisture absorption: do not absorb moisture
[2]; Final (b), tableting
  Moisture content: 4.90%
[2]; Intermediate (a), mixing
  Moisture content: 4.90%
[2]; Start
  Moisture content: 4.90%
[2]; mixing (a) and tableting (b) phases, in words
  water content during manufacturing: stable water content
[3]; Mercury Porosimetry Analysis, in words
  particle size reduction (milling efficiency): same rank order
[3]; in words, in comparison with the anhydrous form
  stability to milling: unexpected better stability to milling
[3]; rotor speed of 20,000 rpm, hydrochloride monohydrate
  percentage of degradation products after milling: 0.0%
[4]; 1 month/55° C., 43200 min
  % degradation: 0.5%
[4]; 3 months/40° C.-75% RH, 129600 min
  % degradation: 0.5%
[4]; 3 months/55° C., 129600 min
  % degradation: 1.6%
[4]; 6 months/40° C.-75% RH, 259200 min
  % degradation: 1.0%
[4]; accelerated tests, in comparison with compounds 1a and 1b, in words
  stability in tablets and capsules: better stability
[5]; 3 months/40° C., 129600 min
  % degradation: 0.4%
[5]; 6 months/30° C.-70% RH, 259200 min
  % degradation: 0.1%
[5]; 6 months/40° C., 259200 min
  % degradation: 0.6%
[5]; long term real time tests, in comparison with compounds 1a and 1b, in words
  stability in tablets and capsules: better stability
[6]
  loss of water content on desiccation: without any appreciable loss of water content
